Experimental data as given in US9249132B2, “Substituted bicyclic aromatic compounds as S-nitrosoglutathione reductase inhibitors” (Nivalis Therapeutics, Inc., priority 2010, dated 2016).
pIC50: −log10 of the molar value.

Target: T1, GSNOR (Homo sapiens, UniProt P11766)
T1 construct: made in house; host or cells: E. coli
Assay: GSNOR assay (inhibition of GSNOR activity, change in 340 nm absorbance)
Format: biochemical
Conditions: 100 mM NaPO4 pH 7.4, 0.240 mM GSNO, 0.300 mM NADH, 0.5 μg/mL GSNO Reductase, 1% DMSO, 25° C.
Experimental: Various compounds were tested in vitro for their ability to inhibit GSNOR activity.
GSNOR expression and purification is described in Biochemistry 2000, 39, 10720-10729.
GSNOR Fermentation: Pre-cultures were grown from stabs of a GSNOR glycerol stock in 2XYT media containing 100 ug/ml ampicillin after an overnight incubation at 37° C. Cells were then added to fresh 2XYT (4 L) containing ampicillin and grown to an OD (A600) of 0.6-0.9 at 37° C. before induction. GSNOR expression was induced with 0.1% arabinose in an overnight incubation at 20° C.
GSNOR Purification: E. coli cell paste was lysed by nitrogen cavitation and the clarified lysate purified by Ni affinity chromatography on an AKTA FPLC (Amersham Pharmacia). The column was eluted in 20 mM Tris pH 8.0/250 mM NaCl with a 0-500 mM imidazole gradient. Eluted GSNOR fractions containing the Smt-GSNOR fusion were digested overnight with Ulp-1 at 4° C. to remove the affinity tag then re-run on the Ni column under the same conditions. GSNOR was recovered in the flowthrough fraction and for crystallography is further purified by Q-Sepharose and Heparin flowthrough chromatography in 20 mM Tris pH 8.0, 1 mM DTT, 10 uM ZnSO4.
GSNOR Assay: GSNO and enzyme/NADH Solutions are made up fresh each day. The solutions are filtered and allowed to warm to room temperature. GSNO solution: 100 mM NaPO4 (pH 7.4), 0.480 mM GSNO. 396 μL of GSNO Solution is added to a cuvette followed by 8 μL of test compound in DMSO (or DMSO only for full reaction control) and mixed with the pipette tip. Compounds to be tested are made up at a stock concentration of 10 mM in 100% DMSO. 2 fold serial dilutions are done in 100% DMSO. 8 μL of each dilution are added to an assay so that the final concentration of DMSO in the assay is 1%. The concentrations of compounds tested range from 100 to 0.003 μM. Enzyme/NADH solution: 100 mM NaPO4 (pH 7.4), 0.600 mM NADH, 1.0 μg/mL GSNO Reductase. 396 μL of the Enzyme/NADH solution is added to the cuvette to start the reaction. The cuvette is placed in the Cary 3E UV/Visible Spectrophotometer and the change in 340 nm absorbance/min at 25° C. is recorded for 3 minutes. The assays are done in triplicate for each compound concentration. IC50's for each compound are calculated using the standard curve analysis in the Enzyme Kinetics Module of SigmaPlot.
Final assay conditions: 100 mM NaPO4, pH 7.4, 0.240 mM GSNO, 0.300 mM NADH, 0.5 μg/mL GSNO Reductase, and 1% DMSO. Final volume: 800 μL/cuvette.

T1 sequence (P11766 whole entry): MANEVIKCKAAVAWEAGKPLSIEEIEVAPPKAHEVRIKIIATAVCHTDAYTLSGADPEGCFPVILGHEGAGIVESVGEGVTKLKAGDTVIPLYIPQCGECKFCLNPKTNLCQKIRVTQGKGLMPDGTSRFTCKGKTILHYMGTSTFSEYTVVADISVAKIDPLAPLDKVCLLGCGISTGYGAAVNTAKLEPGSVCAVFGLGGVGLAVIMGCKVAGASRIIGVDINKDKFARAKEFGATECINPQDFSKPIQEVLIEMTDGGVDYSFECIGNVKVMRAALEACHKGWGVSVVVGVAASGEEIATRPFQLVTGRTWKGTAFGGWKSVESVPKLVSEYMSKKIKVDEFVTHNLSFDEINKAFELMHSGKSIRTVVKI

pIC50 | SMILES
> 7.00 | CN(C)c1cc(C(=O)O)ccc1-c1ccc2cc(O)ccc2c1 [Example 5, 3-(dimethylamino)-4-(6-hydroxynaphthalen-2-yl)benzoic acid]
> 7.30 | N#Cc1c(-c2ccc(C(=O)O)cc2)ccc2cc(O)ccc12 [Example 15, 4-(1-cyano-6-hydroxynaphthalen-2-yl)benzoic acid]
> 7.30 | O=C(O)c1ccc(-c2ccc3cc(O)ccc3c2Cl)cc1 [Example 17, 4-(1-chloro-6-hydroxynaphthalen-2-yl)benzoic acid]
> 7.00 | O=C(O)c1ccc(-c2ccc3cc(O)ccc3c2)c(C(F)(F)F)c1 [Example 20, 4-(6-hydroxynaphthalen-2-yl)-3-(trifluoromethyl)benzoic acid]
> 7.30 | O=C(O)c1ccc(-c2ccc3cc(O)ccc3c2F)cc1 [Example 25, 4-(1-fluoro-6-hydroxynaphthalen-2-yl)benzoic acid]
> 7.30 | N#Cc1c(-c2ccc(C(=O)O)cc2)ccc2c(F)c(O)ccc12 [Example 27, 4-(1-cyano-5-fluoro-6-hydroxynaphthalen-2-yl)benzoic acid]
> 7.30 | O=C(O)c1ccc(-c2ccc3c(F)c(O)ccc3c2)c(F)c1 [Example 31, 3-fluoro-4-(5-fluoro-6-hydroxynaphthalen-2-yl)benzoic acid]

The remaining lines, values behind:

SMILES | pIC50
O=C(O)c1ccc(-c2ccc3cc(O)ccc3c2)c(F)c1 [Example 2, 3-fluoro-4-(6-hydroxynaphthalen-2-yl)benzoic acid] | > 7.30
COc1cc(C(=O)O)ccc1-c1ccc2cc(O)ccc2c1 [Example 3, 4-(6-hydroxynaphthalen-2-yl)-3-methoxybenzoic acid] | > 7.00
N#Cc1cc(C(=O)O)ccc1-c1ccc2cc(O)ccc2c1 [Example 6, 3-cyano-4-(6-hydroxynaphthalen-2-yl)benzoic acid] | > 7.30
O=C(O)c1ccc(-c2ccc3cc(O)ccc3c2Br)cc1 [Example 12, 4-(1-bromo-6-hydroxynaphthalen-2-yl)benzoic acid] | > 7.30
Oc1ccc2cc(-c3ccc(-c4nnn[nH]4)cc3)ccc2c1 [Example 18, 6-(4-(1H-tetrazol-5-yl)phenyl)naphthalen-2-ol] | > 7.00
O=C(O)c1ccc(-c2cc3ccc(O)cc3cc2F)c(Cl)c1 [Example 21, 3-chloro-4-(3-fluoro-6-hydroxynaphthalen-2-yl)benzoic acid] | > 7.30
O=C(O)c1ccc(-c2cc3ccc(O)cc3cc2Cl)cc1 [Example 22, 4-(3-chloro-6-hydroxynaphthalen-2-yl)benzoic acid] | > 7.30
O=C(O)c1ccc(-c2cc3ccc(O)cc3cc2F)cc1 [Example 23, 4-(3-fluoro-6-hydroxynaphthalen-2-yl)benzoic acid] | > 7.30
COc1c(-c2ccc(C(=O)O)cc2)ccc2cc(O)ccc12 [Example 24, 4-(6-hydroxy-1-methoxynaphthalen-2-yl)benzoic acid] | > 7.00
Cc1cc2cc(O)ccc2cc1-c1ccc(C(=O)O)cc1 [Example 26, 4-(6-hydroxy-3-methylnaphthalen-2-yl)benzoic acid] | > 7.00
N#Cc1c(-c2ccc(C(=O)O)cc2F)ccc2cc(O)ccc12 [Example 28, 4-(1-cyano-6-hydroxynaphthalen-2-yl)-3-fluorobenzoic acid] | > 7.30
O=C(O)c1ccc(-c2ccc3c(F)c(O)ccc3c2)c(Cl)c1 [Example 29, 3-chloro-4-(5-fluoro-6-hydroxynaphthalen-2-yl)benzoic acid] | > 7.30
O=C(O)c1ccc(-c2ccc3c(F)c(O)ccc3c2)cc1 [Example 30, 4-(5-fluoro-6-hydroxynaphthalen-2-yl)benzoic acid] | > 7.30
Cc1cc(C(=O)O)ccc1-c1ccc2c(F)c(O)ccc2c1 [Example 32, 4-(5-fluoro-6-hydroxynaphthalen-2-yl)-3-methylbenzoic acid] | > 7.30
O=C(O)c1ccc(-c2ccc3cc(O)ccc3c2)cc1 [Example 33, 4-(6-hydroxynaphthalen-2-yl)benzoic acid] | > 7.00

Test system: not listed separately
Assay: Mouse pharmacokinetic (PK) study
Format: in vivo
Conditions: plasma, male BALB/c mice, PO 10 mg/kg, IV 2 mg/kg
Description: The mouse was used to determine the pharmacokinetics of compounds of the invention. This species is widely used to assess the bioavailability of compounds by administering both oral (PO) and intravenous (IV) test articles. Efficacy of the compounds of the invention was compared by assessing plasma exposure in male BALB/c mice either via IV or PO administration at the times of peak activity.
Compounds of the invention were reconstituted in a phosphate buffered saline (PBS)/10% Solutol (HS 15) clear solution resulting in a concentration of 0.2 mg/mL and administered to mice (2 mg/kg) as a single IV dose. Animals were dosed via the lateral tail vein. […] The plasma was transferred into labeled polypropylene tubes and frozen at −70° C. until analyzed by LC/MS/MS.
The compounds of the invention were reconstituted in 40% Propylene Glycol/40% Propylene Carbonate/20% of a 5% Sucrose clear solution resulting in a concentration of 2 mg/mL and administered to mice (10 mg/kg) as a single oral dose via gavage. […] The plasma was transferred into labeled polypropylene tubes and frozen at −70° C. until analyzed by LC/MS/MS.
Plasma samples at each timepoint were analyzed using a LC-MS/MS with a lower limit of quantification (LLOQ) of 1 ng/mL. […]
In addition to the above PK parameters, bioavailability (% F) was calculated.

SMILES | bioavailability
O=C(O)c1ccc(-c2ccc3cc(O)ccc3c2)c(F)c1 [Example 2, 3-fluoro-4-(6-hydroxynaphthalen-2-yl)benzoic acid] | > 40%

Test system: dextran sodium sulfate (DSS)-induced IBD
Assay: Acute prophylactic model of DSS-induced IBD
Format: in vivo, mouse
Conditions: acute DSS-induced IBD
Description: Acute and chronic models of dextran sodium sulfate (DSS)-induced IBD in mice were used to explore efficacy of GSNORi against this disease. Acute and chronic DSS-induced IBD are widely used and well characterized models that induce pathological changes in the colon similar to those observed in the human disease. In these models and in human disease, epithelial cells within the crypts of the colon are disrupted, leading to dysfunction of the epithelial barrier and the ensuing tissue inflammation, edema, and ulceration. GSNORi therapy may benefit IBD by restoring s-nitrosoglutathione (GSNO) levels, and thus prevent or reverse the epithelial barrier dysfunction. Experimental IBD was induced by administration of DSS in the drinking water of male C57B1/6 mice (N=8 to 10 mice per group) for 6 consecutive days. GSNORi was dosed orally at doses of 0.1 to 10 mg/kg/day for 10 days starting two days prior to and continuing two days post DSS exposure. Two days post DSS exposure, the effect of GSNORi was assessed in a blinded fashion via endoscopy and histopathology using a five point scale ranging from a score=0 (normal tissue) through a score=4 (ulcerative tissue damage and marked pathological changes). Levels of circulating cytokines involved in inflammatory pathways were also assessed. The effect of GSNORi was compared to vehicle treated controls. The corticosteroid, prednisolone, was used as the positive control in this study and was administered daily at 3 mg/kg/day via oral dosing. Naïve mice (N=5) were also assessed as a normal tissue control.

SMILES | colon injury (in words)
O=C(O)c1ccc(-c2ccc3cc(O)ccc3c2)c(F)c1 [Example 2, 3-fluoro-4-(6-hydroxynaphthalen-2-yl)benzoic acid] | attenuated colon injury

Same assay, conditions: acute model; oral 10 mg/kg/day for 10 consecutive days, prophylactic dosing regimen

SMILES | decrease of percent of mice presenting with severe colon injury scores via histopathology, of vehicle control
O=C(O)c1ccc(-c2ccc3cc(O)ccc3c2)c(F)c1 [Example 2, 3-fluoro-4-(6-hydroxynaphthalen-2-yl)benzoic acid] | 26%

Same assay, conditions: acute model; oral 10 mg/kg/day for 10 days; p<0.05

SMILES | decrease of percent of mice presenting with severe endoscopy scores, of vehicle control
O=C(O)c1ccc(-c2ccc3cc(O)ccc3c2)c(F)c1 [Example 2, 3-fluoro-4-(6-hydroxynaphthalen-2-yl)benzoic acid] | 58%
